The source of these data is the supplement of paper PMC11208160.

The nature of the series: recombinant barcode read abundance after kanamycin selection (control-corrected) (log10(CPM+1)); higher = more efficient recombination; sequences stand for … in AGTGCAGAGAAAATCGGCCAGTTTTCTCTGCCTGCAGTCCGCATGCCGT…ATTTATGCAGCGGACTGCCTTTCTCCCAAAGTGATAAACCGGACAGTATCATGGACCGGTTTTCCCGGTAATCCGTATTTGCAAGGTTGGTTTCACT; site = the 11-nt target. In short, it runs like this:
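A vector carrying a T7-inducible recombinase and the last 73 bp of the bridge RNA received, by Gibson cloning, oligos encoding a promoter, target, barcode and the first 104 bridge RNA bases under J23119. The pooled constructs entered E. coli together with a donor plasmid by electroporation. Selection used chloramphenicol/ampicillin/kanamycin with 0.1 mM IPTG, with chloramphenicol/ampicillin LB agar as the control, each in two replicates. Recombination efficiency is the averaged, control-corrected counts-per-million of barcodes at recombinant junctions, reported as log10(CPM+1).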
As for “TTATAAACATGGGTTCTAACCTGTTGCCTTG [TTATAAACTAG_LTGcore_CA_RTGcore_CA] (site TTATAAACTAG) (LTG core: CA, RTG core: CA)”, the “recombinant barcode read abundance (log10)” value turned out to be 0.0537.

Consider “TTATAAACCTGGGTTCTAACCTGTTGCCTAG [TTATAAACTAG_LTGcore_CC_RTGcore_CT] (site TTATAAACTAG) (LTG core: CC, RTG core: CT)”, for which the “recombinant barcode read abundance (log10)” value is 0.437.

With “TTATAAACTTGGGTTCTAACCTGTTGCCTCC [TTATAAACTAG_LTGcore_CT_RTGcore_GG] (site TTATAAACTAG) (LTG core: CT, RTG core: GG)”, the “recombinant barcode read abundance (log10)” value was 0.179.

As to “TTATAAACTTGGGTTCTAACCTGTTGCCTGA [TTATAAACTAG_LTGcore_CT_RTGcore_TC] (site TTATAAACTAG) (LTG core: CT, RTG core: TC)”, the “recombinant barcode read abundance (log10)” value stood at 0.137.

Consider “TTATAAACTTGGGTTCTAACCTGTTGCCTTC [TTATAAACTAG_LTGcore_CT_RTGcore_GA] (site TTATAAACTAG) (LTG core: CT, RTG core: GA)”, for which the “recombinant barcode read abundance (log10)” value worked out at 0.0607.

In the case of “TTATAAAGCTGGGTTCTAACCTGTTGCCTAG [TTATAAACTAG_LTGcore_GC_RTGcore_CT] (site TTATAAACTAG) (LTG core: GC, RTG core: CT)”, the “recombinant barcode read abundance (log10)” value worked out at 0.0375.

Regarding “TTATAAAGGTGGGTTCTAACCTGTTGCCTAG [TTATAAACTAG_LTGcore_GG_RTGcore_CT] (site TTATAAACTAG) (LTG core: GG, RTG core: CT)”, the “recombinant barcode read abundance (log10)” value was 0.0816.

Regarding “TTATAAATATGGGTTCTAACCTGTTGCCTAG [TTATAAACTAG_LTGcore_TA_RTGcore_CT] (site TTATAAACTAG) (LTG core: TA, RTG core: CT)”, the “recombinant barcode read abundance (log10)” value amounted to 0.124.
